Patent publication US10870876B2, “Method for detecting a presence or absence of at least one first zone of inhibition” (BIOMÉRIEUX, priority 2015, dated 2020)
Converted amounts (≈) assume the structure as drawn.

Key:
Format in all cases: cell-based
[1] = system: Escherichia coli ATCC 25922; assay: Etest strip MIC, deposition of the sample in droplets along the strip; details: for MIC: Escherichia coli, ATCC25922, ATCC 25922, 0.5 McFarland, read-out: minimum inhibitory concentration; for minimum inhibitory concentration: ATCC 25922, 0.5 McFarland
Source text: (§1) FIGS. 8a to 8d and 9a to 9d illustrate this second example of implementation of the invention. According to FIG. 8a, a sample 1 is deposited in the form of a series of droplets, along an axis parallel to the long edge of a strip 3 containing a concentration gradient of chemical agent. The strip 3 comprises graduations of concentrations of chemical agent 13, making it possible to deduce a minimum inhibitory concentration of chemical agent. An example of such a strip is sold by the applicant under the trade name Etest®. According to the FIG. 8b, a strip 3 containing a chemical agent 5 is deposited on a culture medium 2 contained in a Petri dish 4 (for example a Petri dish with a diameter greater than or equal to 9 cm). The detail B in FIG. 8b is visible in FIG. 8c. A sample 1 is deposited in the form of a series of droplets in a deposition zone 8 along an axis 7 parallel to the long edge of the strip 3. In this example, 13 nanoliter drops are deposited by a Pipejet P9 Nanodispenser pipette sold by the company biofluidix and mounted on a robotic arm. The detail C in FIG. 8c is visible in FIG. 8d. 50 droplets are thus deposited along the axis 7 with an interval P of 800 μm. Each droplet covers a surface area of approximately 1 mm^2.
(§2) According to a first experiment of this example, an inoculum of a strain of Escherichia coli ATCC 35218 (American Type Culture Collection) having a concentration of 0.5 McFarland is thus deposited in droplets along four Etest® strips (bioMérieux), each deposited on a Mueller Hinton E agar culture medium (bioMérieux). The strips contain respectively a concentration gradient of gentamicin, tetracycline, ampicillin/sulbactam, ampicillin. In the same manner, an inoculum of a strain of Escherichia coli ATCC 25922 having a concentration of 0.5 McFarland is deposited in droplets along four Etest® strips (bioMérieux), each deposited on a Mueller Hinton E agar culture medium (bioMérieux). The strips also contain a concentration gradient of gentamicin, tetracycline, ampicillin/sulbactam, ampicillin.
(§3) Fifty droplets, each with a volume of 13 nanoliters and spaced apart by 800 μm, are deposited along each strip. As a function of the concentration of 0.5 McFarland, it is thus estimated that approximately 2000 bacteria are present in each droplet. The eight culture media prepared in this way are then incubated and monitored periodically in order to determine the presence or the absence of a zone of inhibition and/or of growth of the microorganisms.
The minimum inhibitory concentration results obtained for the strains of Escherichia coli ATCC 35218 and also the strains of Escherichia coli ATCC 25922 are compared with the conventional method by flooding of the medium in table 1 below. The values are given in μg/ml at different incubation times. The inhibition values for the flooding method are measured from images obtained by a shadowgraphy capture device as described above. The inhibition values for the method according to the invention are measured from images obtained by a shadowgraphy capture device at 5 hours, and visually at 7 hours.

[2] = system: Escherichia coli ATCC 35218; assay: Etest strip MIC, conventional method by flooding of the medium; design: key: R = resistant
Description: (§4) Another method for detecting sensitivity to antibiotics uses an antibiotic gradient deposited on an agar medium. For this purpose, paper or plastic strips are impregnated with a concentration gradient of antibiotic. The strips soaked in this way are graduated so as to indicate the antibiotic concentration values present along the strip. One or more strips may be placed on a Mueller-Hinton agar, inoculated beforehand in the same way as the above method. After incubation, an ovoid area of inhibition of microbial growth around each strip appears if the microorganism present in the sample is sensitive to the antibiotic contained in the strip. It is thus possible to deduce a minimum inhibitory concentration (MIC) for microbial growth. The minimum concentration of the antimicrobial agent which makes it possible to inhibit the growth of the microorganism which is generally retained is thus the value of the concentration which can be read on the graduation directly below the point of contact between the zone of inhibition and the long edge of the strip. In other words, the MIC is the concentration visible at the limit of the zone of inhibition, at the boundary between the zone of growth of the microorganisms and the zone of non-growth. More particularly, the MIC can be read by noting the point at which the ovoid area of the zone of inhibition intersects the strip, and by noting the corresponding graduation.
as §2
(§5) The values are given in μg/ml at different incubation times. The inhibition values for the flooding method are measured from images obtained by a shadowgraphy capture device as described above. The inhibition values for the method according to the invention are measured from images obtained by a shadowgraphy capture device at 5 hours, and visually at 7 hours.

[3] = system: Escherichia coli ATCC 35218; assay: Etest strip MIC, deposition of the sample in droplets along the strip; design: key to minimum inhibitory concentration / MIC: R = resistant
Source text: as §1, §2, §3
FIGS. 9a to 9d illustrate a plan view of the four media in which the sample of Escherichia coli ATCC 35218 was deposited. FIGS. 9a to 9d are obtained by means of a shadowgraphy capture device as presented in relation to FIG. 5. FIG. 9a presents a view after 5 hours of incubation of the sample in the presence of gentamicin. […] A minimum inhibitory concentration value is then obtained at the intersection between the straight line 14 and the long edge of the strip. A minimum inhibitory concentration (MIC) of 2 μg/ml is thus determined.
Advantageously, a straight line or an arc 15 delimiting the boundary of the zone of growth of microorganisms and the zone of inhibition may be sought, this straight line not necessarily being perpendicular to the long edge and thus reproducing said boundary more faithfully. This straight line or this arc corresponds to a portion of the ovoid area of inhibition observed with conventional inoculation methods and therefore enables better estimation of the MIC. In the case in which a straight line or an arc 15 is sought, the minimum inhibitory concentration may be obtained by tracing a line perpendicular to the long edge of the strip, crossing the point of intersection between the straight line 15 and the axis of deposition of the sample 7, then by seeking the graduation corresponding to this perpendicular line on the strip. […]

[4] = system: Escherichia coli ATCC 25922; assay: Etest strip MIC, conventional method by flooding of the medium; details: for MIC: Escherichia coli, ATCC25922, ATCC 25922, 0.5 McFarland, read-out: minimum inhibitory concentration; for minimum inhibitory concentration: ATCC 25922, 0.5 McFarland
Description: as §4, §2, §5

[5] = incubation time 5 H (shadowgraphy)
[6] = Flooding, ATCC 35218, 0.5 McFarland, incubation time 6 H
[7] = Flooding, ATCC 35218, 0.5 McFarland, incubation time 8 H
[8] = Table 2, flooding, ATCC 35218, 28 H
[9] = Deposition in droplets, ATCC 35218, 0.5 McFarland, incubation time 5 H (shadowgraphy)
[10] = Deposition in droplets, ATCC 35218, 0.5 McFarland, incubation time 7 H (visual)
[11] = Escherichia coli, ATCC35218, droplets of 13 nanoliters, ATCC 35218 at 0.5 McFarland, after 5 hours of incubation, shadowgraphy (FIGS. 9a-9d), read-out: minimum inhibitory concentration (MIC)
[12] = Table 2, droplet (replicate 1 where replicated), ATCC 35218, 0.5 McF, 5 H
[13] = Table 2, droplet (replicate 1 where replicated), ATCC 35218, 0.5 McF, 7 H

`CC1(C)S[C@@H]2[C@H](NC(=O)[C@H](N)c3ccccc3)C(=O)N2[C@H]1C(=O)O` [Ampicillin, ampicillin] was tested, and the MIC [1, 5] was 8 µg/mL (≈ 22.9 µM), the MIC ([1]; incubation time 7 H (visual)) was 8 µg/mL (≈ 22.9 µM) and the minimum inhibitory concentration [2, 6] was “R”. For the same molecule, the minimum inhibitory concentration [2, 7] was “R”, the minimum inhibitory concentration ([2]; Flooding, ATCC 35218, 0.5 McFarland, incubation time 18 H) was “R” and the MIC [2, 8] was “R”. For the same molecule, the minimum inhibitory concentration [3, 9] was “R”, the minimum inhibitory concentration [3, 10] was “R” and the MIC [3, 11] was greater than 256 µg/mL. The MIC [3, 12] was “R”, the MIC [3, 13] was “R” and the MIC ([4]; incubation time 6 H) was 3.43 µg/mL (≈ 9.82 µM). It also gave an MIC ([4]; incubation time 8 H) of 5.21 µg/mL (≈ 14.9 µM) and an MIC ([4]; incubation time 18 H) of 5.69 µg/mL (≈ 16.3 µM).
Molecule `CN(C)[C@@H]1C(O)=C(C(N)=O)C(=O)[C@@]2(O)C(O)=C3C(=O)c4c(O)cccc4[C@@](C)(O)[C@H]3C[C@@H]12` [Tetracycline, tetracycline] has an MIC [1, 5] of 1.5 µg/mL (≈ 3.38 µM), an MIC ([1]; incubation time 7 H (visual)) of 2 µg/mL (≈ 4.5 µM) and an MIC ([2]; Escherichia coli, ATCC35218, Flooding, ATCC 35218, 0.5 McFarland, incubation time 4 H, read-out: minimum inhibitory concentration) of 0.44 µg/mL (≈ 0.99 µM). It also gave an MIC ([2]; Escherichia coli, ATCC35218, Flooding, ATCC 35218, 0.5 McFarland, incubation time 5 H, read-out: minimum inhibitory concentration) of 0.86 µg/mL (≈ 1.94 µM), an MIC ([2]; Escherichia coli, ATCC35218, Flooding, ATCC 35218, 0.5 McFarland, incubation time 6 H, read-out: minimum inhibitory concentration) of 0.96 µg/mL (≈ 2.16 µM) and an MIC ([2]; Escherichia coli, ATCC35218, Flooding, ATCC 35218, 0.5 McFarland, incubation time 8 H, read-out: minimum inhibitory concentration) of 1.12 µg/mL (≈ 2.51 µM). For the same molecule, the MIC ([2]; Escherichia coli, ATCC35218, Flooding, ATCC 35218, 0.5 McFarland, incubation time 24 H, read-out: minimum inhibitory concentration) was 2.3 µg/mL (≈ 5.18 µM), the MIC ([2]; Escherichia coli, ATCC35218, Table 2, flooding, ATCC 35218, 4 H, read-out: MIC) was 0.44 µg/mL (≈ 0.99 µM) and the MIC ([2]; Escherichia coli, ATCC35218, Table 2, flooding, ATCC 35218, 5 H, read-out: MIC) was 0.86 µg/mL (≈ 1.94 µM). The MIC ([2]; Escherichia coli, ATCC35218, Table 2, flooding, ATCC 35218, 8 H, read-out: MIC) was 1.12 µg/mL (≈ 2.51 µM), the MIC ([2]; Escherichia coli, ATCC35218, Table 2, flooding, ATCC 35218, 28 H, read-out: MIC) was 2.3 µg/mL (≈ 5.18 µM) and the MIC ([2]; Escherichia coli, ATCC35218, Table 2, flooding, ATCC 35218, column 4 headed 8 H (between 5 H and 7 H), read-out: MIC) was 0.96 µg/mL (≈ 2.16 µM). It also gave an MIC ([3]; Escherichia coli, ATCC35218, Deposition in droplets, ATCC 35218, 0.5 McFarland, incubation time 5 H (shadowgraphy), read-out: minimum inhibitory concentration) of 1.5 µg/mL (≈ 3.38 µM), an MIC ([3]; Escherichia coli, ATCC35218, Deposition in droplets, ATCC 35218, 0.5 McFarland, incubation time 7 H (visual), read-out: minimum inhibitory concentration) of 2 µg/mL (≈ 4.5 µM) and an MIC ([3]; Escherichia coli, ATCC35218, Table 2, droplet (replicate 1 where replicated), ATCC 35218, 0.5 McF, 5 H, read-out: MIC) of 1.5 µg/mL (≈ 3.38 µM). For the same molecule, the MIC ([3]; Escherichia coli, ATCC35218, Table 2, droplet (replicate 1 where replicated), ATCC 35218, 0.5 McF, 7 H, read-out: MIC) was 2 µg/mL (≈ 4.5 µM), the MIC [3, 11] was 1.5 µg/mL (≈ 3.38 µM) and the MIC ([4]; incubation time 4 H) was 0.3 µg/mL (≈ 0.675 µM). It also gave an MIC ([4]; incubation time 5 H) of 0.6 µg/mL (≈ 1.35 µM), an MIC ([4]; incubation time 6 H) of 0.66 µg/mL (≈ 1.49 µM) and an MIC ([4]; incubation time 8 H) of 0.86 µg/mL (≈ 1.94 µM). It also gave an MIC ([4]; incubation time 24 H) of 1.77 µg/mL (≈ 3.98 µM).
gentamicin showed a minimum inhibitory concentration [1, 5] of 2 µg/mL, a minimum inhibitory concentration ([1]; incubation time 7 H (visual)) of 2 µg/mL and a minimum inhibitory concentration ([2]; Flooding, ATCC 35218, 0.5 McFarland, incubation time 4 H) of 0.96 µg/mL. It also gave a minimum inhibitory concentration ([2]; Flooding, ATCC 35218, 0.5 McFarland, incubation time 5 H) of 1.14 µg/mL, a minimum inhibitory concentration [2, 6] of 1.17 µg/mL and a minimum inhibitory concentration [2, 7] of 1.17 µg/mL. The minimum inhibitory concentration ([2]; Flooding, ATCC 35218, 0.5 McFarland, incubation time 24 H) was 1.06 µg/mL, the MIC ([2]; Table 2, flooding, ATCC 35218, 4 H) was 0.96 µg/mL and the MIC ([2]; Table 2, flooding, ATCC 35218, 5 H) was 1.14 µg/mL. It also gave an MIC [2, 8] of 1.06 µg/mL, a minimum inhibitory concentration [3, 9] of 2 µg/mL and a minimum inhibitory concentration [3, 10] of 2 µg/mL. For the same molecule, the MIC [3, 12] was 2 µg/mL, the MIC [3, 13] was 2 µg/mL and the “minimum inhibitory concentration (MIC)” value ([3]; droplets of 13 nanoliters, ATCC 35218 at 0.5 McFarland, after 5 hours of incubation, shadowgraphy (FIGS. 9a-9d)) was 2 µg/mL. The minimum inhibitory concentration ([4]; incubation time 4 H) was 1.74 µg/mL, the minimum inhibitory concentration ([4]; incubation time 5 H) was 1.51 µg/mL and the minimum inhibitory concentration ([4]; incubation time 6 H) was 1.75 µg/mL. It also gave a minimum inhibitory concentration ([4]; incubation time 8 H) of 1.82 µg/mL and a minimum inhibitory concentration ([4]; incubation time 24 H) of 1.54 µg/mL.
